Laboratory results from ChEMBL document CHEMBL5678810.

Experiments:
[1] = biological target: TGF-beta receptor type-1 (Homo sapiens) (UniProt P36897); assay: Inhibition of T7 bacteriophage fused human TGFBR1 at 10 uM by KINOMEscan analysis relative to control
[2] = biological target: Wee1-like protein kinase (Homo sapiens) (UniProt P30291); assay: Inhibition of T7 bacteriophage fused human WEE1 at 10 uM by KINOMEscan analysis relative to control
[3] = biological target: Tyrosine-protein kinase Yes (Homo sapiens) (UniProt P07947); assay: Inhibition of T7 bacteriophage fused human YES at 10 uM by KINOMEscan analysis relative to control
Tyrosine-protein kinase Yes (Homo sapiens), sequence (P07947 2-543 limits assumed): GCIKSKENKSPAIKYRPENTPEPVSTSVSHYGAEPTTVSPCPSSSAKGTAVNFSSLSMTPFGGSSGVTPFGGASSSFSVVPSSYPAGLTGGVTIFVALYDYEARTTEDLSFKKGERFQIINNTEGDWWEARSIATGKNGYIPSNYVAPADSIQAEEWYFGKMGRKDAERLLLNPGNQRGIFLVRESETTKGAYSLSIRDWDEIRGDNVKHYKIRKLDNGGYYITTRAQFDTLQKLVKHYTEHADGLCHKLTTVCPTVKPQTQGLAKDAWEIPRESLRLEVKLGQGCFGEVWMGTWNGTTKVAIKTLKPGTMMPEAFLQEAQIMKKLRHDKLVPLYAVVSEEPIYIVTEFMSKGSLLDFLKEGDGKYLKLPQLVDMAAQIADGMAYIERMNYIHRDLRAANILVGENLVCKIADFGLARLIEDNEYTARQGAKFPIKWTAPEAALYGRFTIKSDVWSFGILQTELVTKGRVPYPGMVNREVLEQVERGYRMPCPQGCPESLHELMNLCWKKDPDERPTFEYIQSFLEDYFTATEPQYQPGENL

[4] = biological target: Mitogen-activated protein kinase kinase kinase 12 (Homo sapiens) (UniProt Q12852); assay: Inhibition of T7 bacteriophage fused human DLK at 10 uM by KINOMEscan analysis relative to control; values are per cent of control
[5] = biological target: Activin receptor type-1B (Homo sapiens) (UniProt P36896); assay: Inhibition of T7 bacteriophage fused human ACVR1B at 10 uM by KINOMEscan analysis relative to control
[6] = biological target: Ankyrin repeat and protein kinase domain-containing protein 1 (Homo sapiens) (UniProt Q8NFD2); assay: Inhibition of T7 bacteriophage fused human ANKK1 at 10 uM by KINOMEscan analysis relative to control
[7] = biological target: NUAK family SNF1-like kinase 1 (Homo sapiens) (UniProt O60285); assay: Inhibition of T7 bacteriophage fused human ARK5 at 10 uM by KINOMEscan analysis relative to control
[8] = biological target: Cyclin-dependent kinase 4/cyclin D1 (Homo sapiens) (UniProt P11802+P24385); assay: Inhibition of T7 bacteriophage fused human CDK4-cyclinD1 at 10 uM by KINOMEscan analysis relative to control; assay type: protein-complex assay
[9] = biological target: Cyclin-dependent kinase 7 (Homo sapiens) (UniProt P50613); assay: Inhibition of T7 bacteriophage fused human CDK7 at 10 uM by KINOMEscan analysis relative to control
[10] = biological target: Cyclin-dependent kinase-like 2 (Homo sapiens) (UniProt Q92772); assay: Inhibition of T7 bacteriophage fused human CDKL2 at 10 uM by KINOMEscan analysis relative to control
[11] = biological target: Serine/threonine-protein kinase Chk1 (Homo sapiens) (UniProt O14757); assay: Inhibition of T7 bacteriophage fused human CHEK1 at 10 uM by KINOMEscan analysis relative to control
[12] = biological target: Ephrin type-A receptor 1 (Homo sapiens) (UniProt P21709); assay: Inhibition of T7 bacteriophage fused human EPHA1 at 10 uM by KINOMEscan analysis relative to control
[13] = biological target: Interleukin-1 receptor-associated kinase 3 (Homo sapiens) (UniProt Q9Y616); assay: Inhibition of T7 bacteriophage fused human IRAK3 at 10 uM by KINOMEscan analysis relative to control
[14] = biological target: Serine/threonine-protein kinase LATS1 (Homo sapiens) (UniProt O95835); assay: Inhibition of T7 bacteriophage fused human LATS1 at 10 uM by KINOMEscan analysis relative to control
[15] = biological target: Maternal embryonic leucine zipper kinase (Homo sapiens) (UniProt Q14680); assay: Inhibition of T7 bacteriophage fused human MELK at 10 uM by KINOMEscan analysis relative to control
[16] = biological target: Phosphatidylinositol 4,5-bisphosphate 3-kinase catalytic subunit alpha isoform (Homo sapiens) (UniProt P42336); assay: Inhibition of T7 bacteriophage fused human PIK3CA at 10 uM by KINOMEscan analysis relative to control
[17] = system: Phosphatidylinositol 4,5-bisphosphate 3-kinase catalytic subunit alpha isoform (Homo sapiens), P42336 [E545K]; assay: Inhibition of T7 bacteriophage fused human PIK3CA E545K mutant at 10 uM by KINOMEscan analysis relative to control
[18] = biological target: Protein kinase C eta type (Homo sapiens) (UniProt P24723); assay: Inhibition of T7 bacteriophage fused human PRKCH at 10 uM by KINOMEscan analysis relative to control
[19] = biological target: Serine/threonine-protein kinase D3 (Homo sapiens) (UniProt O94806); assay: Inhibition of T7 bacteriophage fused human PRKD3 at 10 uM by KINOMEscan analysis relative to control
[20] = biological target: RAF proto-oncogene serine/threonine-protein kinase (Homo sapiens) (UniProt P04049); assay: Inhibition of T7 bacteriophage fused human RAF1 at 10 uM by KINOMEscan analysis relative to control
[21] = biological target: Proto-oncogene tyrosine-protein kinase ROS (Homo sapiens) (UniProt P08922); assay: Inhibition of T7 bacteriophage fused human ROS1 at 10 uM by KINOMEscan analysis relative to control
[22] = biological target: Ribosomal protein S6 kinase alpha-4 (Homo sapiens) (UniProt O75676); assay: Inhibition of T7 bacteriophage fused human N-terminal RPS6KA4 Kinase domain-1 at 10 uM by KINOMEscan analysis relative to control
[23] = biological target: Ribosomal protein S6 kinase alpha-1 (Homo sapiens) (UniProt Q15418); assay: Inhibition of T7 bacteriophage fused human N-terminal RSK1 Kinase domain-1 at 10 uM by KINOMEscan analysis relative to control
[24] = biological target: Serine/threonine-protein kinase Sgk3 (Homo sapiens) (UniProt Q96BR1); assay: Inhibition of T7 bacteriophage fused human SGK3 at 10 uM by KINOMEscan analysis relative to control
Serine/threonine-protein kinase Sgk3 (Homo sapiens), sequence (Q96BR1 whole entry, the tested form may be a part): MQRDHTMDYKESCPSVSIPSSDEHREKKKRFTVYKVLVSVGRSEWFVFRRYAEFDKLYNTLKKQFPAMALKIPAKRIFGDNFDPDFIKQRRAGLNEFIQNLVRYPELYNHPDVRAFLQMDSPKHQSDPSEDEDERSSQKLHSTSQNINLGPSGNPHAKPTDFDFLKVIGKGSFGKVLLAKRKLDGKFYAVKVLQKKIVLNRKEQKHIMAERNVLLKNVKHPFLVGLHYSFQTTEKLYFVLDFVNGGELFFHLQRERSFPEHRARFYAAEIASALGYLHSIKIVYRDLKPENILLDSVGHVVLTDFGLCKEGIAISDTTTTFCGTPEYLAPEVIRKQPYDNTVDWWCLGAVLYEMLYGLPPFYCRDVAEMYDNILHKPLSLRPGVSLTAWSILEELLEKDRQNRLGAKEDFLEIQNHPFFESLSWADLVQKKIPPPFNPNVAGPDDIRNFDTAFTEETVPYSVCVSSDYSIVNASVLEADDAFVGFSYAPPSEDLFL

[25] = biological target: Serine/threonine-protein kinase 35 (Homo sapiens) (UniProt Q8TDR2); assay: Inhibition of T7 bacteriophage fused human STK35 at 10 uM by KINOMEscan analysis relative to control
Serine/threonine-protein kinase 35 (Homo sapiens), sequence (Q8TDR2 whole entry, the tested form may be a part): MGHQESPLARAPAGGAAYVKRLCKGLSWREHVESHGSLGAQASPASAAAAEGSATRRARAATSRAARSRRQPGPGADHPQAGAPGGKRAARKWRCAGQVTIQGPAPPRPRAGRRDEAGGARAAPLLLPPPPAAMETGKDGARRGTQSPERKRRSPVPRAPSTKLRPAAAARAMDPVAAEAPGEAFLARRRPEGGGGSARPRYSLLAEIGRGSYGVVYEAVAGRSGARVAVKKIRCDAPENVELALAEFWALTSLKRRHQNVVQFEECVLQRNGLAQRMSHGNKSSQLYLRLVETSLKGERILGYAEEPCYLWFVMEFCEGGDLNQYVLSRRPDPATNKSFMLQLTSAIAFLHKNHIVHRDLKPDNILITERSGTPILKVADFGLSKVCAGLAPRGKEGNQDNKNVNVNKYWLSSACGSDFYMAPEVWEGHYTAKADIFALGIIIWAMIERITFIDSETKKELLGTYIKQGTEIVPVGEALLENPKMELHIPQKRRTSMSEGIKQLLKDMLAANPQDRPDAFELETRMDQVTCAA

[26] = biological target: Serine/threonine-protein kinase TAO3 (Homo sapiens) (UniProt Q9H2K8); assay: Inhibition of T7 bacteriophage fused human TAOK3 at 10 uM by KINOMEscan analysis relative to control
Serine/threonine-protein kinase TAO3 (Homo sapiens), sequence (Q9H2K8 whole entry, the tested form may be a part): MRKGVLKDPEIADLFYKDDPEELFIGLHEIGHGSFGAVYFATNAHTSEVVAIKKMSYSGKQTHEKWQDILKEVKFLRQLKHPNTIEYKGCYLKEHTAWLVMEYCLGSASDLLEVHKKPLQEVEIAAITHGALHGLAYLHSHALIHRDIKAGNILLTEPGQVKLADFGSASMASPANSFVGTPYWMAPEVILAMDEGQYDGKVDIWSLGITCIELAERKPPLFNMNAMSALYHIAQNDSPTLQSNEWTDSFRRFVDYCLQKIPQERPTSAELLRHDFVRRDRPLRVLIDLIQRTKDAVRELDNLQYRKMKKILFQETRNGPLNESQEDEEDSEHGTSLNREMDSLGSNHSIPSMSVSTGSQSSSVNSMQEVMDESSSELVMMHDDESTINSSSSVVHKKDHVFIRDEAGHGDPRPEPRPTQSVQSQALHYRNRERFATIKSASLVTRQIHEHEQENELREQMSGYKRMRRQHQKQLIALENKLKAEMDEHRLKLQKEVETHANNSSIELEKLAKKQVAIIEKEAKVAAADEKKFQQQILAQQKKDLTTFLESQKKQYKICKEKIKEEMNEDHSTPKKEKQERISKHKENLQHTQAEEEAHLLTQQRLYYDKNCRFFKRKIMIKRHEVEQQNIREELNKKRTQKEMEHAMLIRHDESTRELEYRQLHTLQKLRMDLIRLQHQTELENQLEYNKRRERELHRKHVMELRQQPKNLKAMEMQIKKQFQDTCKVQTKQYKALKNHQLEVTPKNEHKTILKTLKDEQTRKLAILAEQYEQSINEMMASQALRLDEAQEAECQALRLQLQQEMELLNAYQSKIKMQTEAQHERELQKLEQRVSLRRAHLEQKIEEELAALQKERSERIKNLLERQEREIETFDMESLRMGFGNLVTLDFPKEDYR

[27] = biological target: Transient receptor potential cation channel subfamily M member 6 (Homo sapiens) (UniProt Q9BX84); assay: Inhibition of T7 bacteriophage fused human TRPM6 at 10 uM by KINOMEscan analysis relative to control
[28] = biological target: Non-receptor tyrosine-protein kinase TYK2 (Homo sapiens) (UniProt P29597); assay: Inhibition of T7 bacteriophage fused human TYK2 JH1 catalytic domain at 10 uM by KINOMEscan analysis relative to control
Non-receptor tyrosine-protein kinase TYK2 (Homo sapiens), sequence (P29597 whole entry, the tested form may be a part): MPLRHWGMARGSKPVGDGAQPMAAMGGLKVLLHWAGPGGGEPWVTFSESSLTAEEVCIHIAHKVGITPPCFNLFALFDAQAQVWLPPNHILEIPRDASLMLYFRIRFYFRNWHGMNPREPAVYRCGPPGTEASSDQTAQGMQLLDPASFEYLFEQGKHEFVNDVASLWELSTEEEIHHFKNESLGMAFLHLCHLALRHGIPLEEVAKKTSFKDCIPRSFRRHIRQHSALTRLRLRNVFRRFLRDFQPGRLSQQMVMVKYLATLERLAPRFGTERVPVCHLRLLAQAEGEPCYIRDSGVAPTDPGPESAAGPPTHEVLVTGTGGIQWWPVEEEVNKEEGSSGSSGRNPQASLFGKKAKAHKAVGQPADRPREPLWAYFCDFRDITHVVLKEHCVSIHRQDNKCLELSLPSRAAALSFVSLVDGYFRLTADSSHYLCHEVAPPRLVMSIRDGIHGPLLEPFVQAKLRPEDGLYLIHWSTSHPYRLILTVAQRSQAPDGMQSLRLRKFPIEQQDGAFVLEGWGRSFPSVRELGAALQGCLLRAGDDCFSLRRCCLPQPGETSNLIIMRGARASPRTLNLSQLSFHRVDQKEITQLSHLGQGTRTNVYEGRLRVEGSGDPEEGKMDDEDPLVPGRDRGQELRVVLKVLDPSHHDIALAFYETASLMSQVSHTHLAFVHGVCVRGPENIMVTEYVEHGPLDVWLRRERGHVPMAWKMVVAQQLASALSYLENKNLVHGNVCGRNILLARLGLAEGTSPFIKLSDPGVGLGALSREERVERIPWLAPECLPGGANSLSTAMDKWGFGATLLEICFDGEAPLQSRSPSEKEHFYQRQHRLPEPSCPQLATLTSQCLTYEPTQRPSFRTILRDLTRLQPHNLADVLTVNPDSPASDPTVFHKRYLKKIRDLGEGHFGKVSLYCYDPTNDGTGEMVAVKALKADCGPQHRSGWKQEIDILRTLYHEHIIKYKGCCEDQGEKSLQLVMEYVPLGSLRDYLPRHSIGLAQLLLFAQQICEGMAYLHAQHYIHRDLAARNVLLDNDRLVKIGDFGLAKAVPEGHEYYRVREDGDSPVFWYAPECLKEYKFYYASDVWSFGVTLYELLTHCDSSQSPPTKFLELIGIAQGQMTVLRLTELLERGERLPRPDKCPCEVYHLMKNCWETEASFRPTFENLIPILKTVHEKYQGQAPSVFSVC

[29] = biological target: Insulin receptor (Homo sapiens) (UniProt P06213); assay: Inhibition of T7 bacteriophage fused human INSR at 10 uM by KINOMEscan analysis relative to control; values are per cent of control
[30] = biological target: MAP kinase-interacting serine/threonine-protein kinase 1 (Homo sapiens) (UniProt Q9BUB5); assay: Inhibition of T7 bacteriophage fused human MKNK1 at 10 uM by KINOMEscan analysis relative to control; values are per cent of control
[31] = biological target: Phosphatidylinositol 5-phosphate 4-kinase type-2 gamma (Homo sapiens) (UniProt Q8TBX8); assay: Inhibition of PIP4K2C ATP labeling site harboring TLVIkEVSSEDIADMHSNLSNYHQYIVK in human PC-3 cell lysate at 10 uM by KiNativ profiling analysis relative to control; assay type: subcellular

TGF-beta receptor type-1 (Homo sapiens), sequence (P36897 whole entry, the tested form may be a part): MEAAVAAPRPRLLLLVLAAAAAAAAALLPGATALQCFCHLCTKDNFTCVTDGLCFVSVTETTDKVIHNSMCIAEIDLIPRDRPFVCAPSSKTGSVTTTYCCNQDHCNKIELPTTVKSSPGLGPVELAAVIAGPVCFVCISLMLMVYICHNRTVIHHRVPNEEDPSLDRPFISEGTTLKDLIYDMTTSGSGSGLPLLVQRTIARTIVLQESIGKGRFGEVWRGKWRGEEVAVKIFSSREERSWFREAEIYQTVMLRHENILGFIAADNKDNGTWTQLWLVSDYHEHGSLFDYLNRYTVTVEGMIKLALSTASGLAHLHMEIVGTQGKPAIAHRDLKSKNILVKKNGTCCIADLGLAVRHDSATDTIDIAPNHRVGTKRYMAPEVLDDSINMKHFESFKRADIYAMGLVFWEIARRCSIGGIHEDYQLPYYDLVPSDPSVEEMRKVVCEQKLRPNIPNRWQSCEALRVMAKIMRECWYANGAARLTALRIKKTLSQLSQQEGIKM
Wee1-like protein kinase (Homo sapiens), sequence (P30291 whole entry, looked up, the tested form may be a part): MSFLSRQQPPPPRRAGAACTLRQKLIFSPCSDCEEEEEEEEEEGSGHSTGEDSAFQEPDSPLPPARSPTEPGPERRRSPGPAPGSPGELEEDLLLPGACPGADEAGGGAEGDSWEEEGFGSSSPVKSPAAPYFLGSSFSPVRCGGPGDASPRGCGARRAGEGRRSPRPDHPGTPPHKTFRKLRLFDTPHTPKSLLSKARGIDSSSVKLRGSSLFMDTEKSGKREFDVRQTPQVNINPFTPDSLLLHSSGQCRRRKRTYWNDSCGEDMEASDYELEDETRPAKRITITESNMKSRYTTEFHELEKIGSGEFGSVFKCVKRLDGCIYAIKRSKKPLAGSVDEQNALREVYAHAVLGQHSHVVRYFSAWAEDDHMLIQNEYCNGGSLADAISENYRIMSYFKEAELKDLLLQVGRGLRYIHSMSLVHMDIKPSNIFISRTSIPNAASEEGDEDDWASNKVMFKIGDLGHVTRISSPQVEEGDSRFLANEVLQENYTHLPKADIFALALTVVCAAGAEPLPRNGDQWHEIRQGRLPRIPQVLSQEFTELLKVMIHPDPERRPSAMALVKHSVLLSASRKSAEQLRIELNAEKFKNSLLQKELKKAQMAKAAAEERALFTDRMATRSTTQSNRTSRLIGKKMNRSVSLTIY

Which inhibition [1] does the source give for CCOc1cc(C(=O)N2CCC(N3CCN(C)CC3)CC2)ccc1Nc1ncc2c(n1)N(C1CCCC1)c1ccccc1C(=O)N2C here?
Its inhibition is 100%.

And the inhibition [2]?
The inhibition was 100%.

And the inhibition [3]?
Its inhibition is 100%.

What about the residual activity [4] of the same compound?
The residual activity was 100%.

COc1cc(N2CCC(N3CCN(C)CC3)CC2)ccc1Nc1ncc2c(n1)N(C)c1ccccc1C(=O)N2C was tested. Which inhibition [5] did it give?
The inhibition was 100%.

What about the inhibition [6] of the same compound?
Its inhibition is 100%.

What about the inhibition [7] of the same compound?
Its inhibition is 47%.

And the inhibition [8]?
Its inhibition is 100%.

And the inhibition [9]?
Its inhibition is 86%.

What about the inhibition [10] of the same compound?
The inhibition was 100%.

What about the inhibition [11] of the same compound?
Its inhibition is 100%.

What about the inhibition [12] of the same compound?
Its inhibition is 100%.

What about the inhibition [13] of the same compound?
Its inhibition is 100%.

What about the inhibition [14] of the same compound?
Its inhibition is 100%.

And the inhibition [15]?
Its inhibition is 100%.

And the inhibition [16]?
Its inhibition is 74%.

What about the inhibition [17] of the same compound?
The inhibition was 100%.

What about the inhibition [18] of the same compound?
Its inhibition is 100%.

What about the inhibition [19] of the same compound?
The inhibition was 42%.

And the inhibition [20]?
Its inhibition is 100%.

And the inhibition [21]?
Its inhibition is 12%.

What about the inhibition [22] of the same compound?
Its inhibition is 100%.

And the inhibition [23]?
The inhibition was 73%.

And the inhibition [24]?
Its inhibition is 95%.

And the inhibition [25]?
Its inhibition is 100%.

And the inhibition [26]?
The inhibition was 24%.

What about the inhibition [1] of the same compound?
Its inhibition is 100%.

What about the inhibition [27] of the same compound?
Its inhibition is 100%.

What about the inhibition [28] of the same compound?
The inhibition was 52%.

What about the inhibition [2] of the same compound?
Its inhibition is 100%.

And the inhibition [3]?
Its inhibition is 100%.

And the residual activity [4]?
Its residual activity is 81%.

What about the residual activity [29] of the same compound?
Its residual activity is 84%.

And the residual activity [30]?
Its residual activity is 50%.

For COc1cc(C(=O)N2CCC(N3CCN(C)CC3)CC2)ccc1Nc1ncc2c(n1)N(C1CCCC1)c1ccccc1C(=O)N2C, which inhibition [24] is on record?
The inhibition was 100%.

And the inhibition [25]?
Its inhibition is 100%.

And the inhibition [26]?
The inhibition was 100%.

What about the inhibition [27] of the same compound?
Its inhibition is 100%.

And the inhibition [28]?
The inhibition was 100%.

And the inhibition [31]?
Its inhibition is -0.1%.
